Measurements: article PMC10510324, “A Biomimetic C-Terminal Extension Strategy for Photocaging Amidated Neuropeptides” (Journal of the American Chemical Society, 2023)

How the values were obtained:
[1] = cited from earlier work
Excerpt: With the target NPP-caged peptides in hand, we examined their photochemical reactivity in cell-compatible aqueous solution (phosphate-buffered saline, pH 7.2). […] Collectively, they were consumed 25–40 ...

[2] = biological target: T1, CCK2R (Mus musculus, UniProt P56481); assay: Whole-cell recording of membrane currents, PV interneurons of hippocampal CA1, acute brain slices; format: cell-based; details: antagonist 1 μM
T1 construct: from tissue; host or cells: acute mouse brain slices, PV interneurons of hippocampal CA1 (PvalbCre; Ai14 mice)
T1 sequence (P56481 1-453): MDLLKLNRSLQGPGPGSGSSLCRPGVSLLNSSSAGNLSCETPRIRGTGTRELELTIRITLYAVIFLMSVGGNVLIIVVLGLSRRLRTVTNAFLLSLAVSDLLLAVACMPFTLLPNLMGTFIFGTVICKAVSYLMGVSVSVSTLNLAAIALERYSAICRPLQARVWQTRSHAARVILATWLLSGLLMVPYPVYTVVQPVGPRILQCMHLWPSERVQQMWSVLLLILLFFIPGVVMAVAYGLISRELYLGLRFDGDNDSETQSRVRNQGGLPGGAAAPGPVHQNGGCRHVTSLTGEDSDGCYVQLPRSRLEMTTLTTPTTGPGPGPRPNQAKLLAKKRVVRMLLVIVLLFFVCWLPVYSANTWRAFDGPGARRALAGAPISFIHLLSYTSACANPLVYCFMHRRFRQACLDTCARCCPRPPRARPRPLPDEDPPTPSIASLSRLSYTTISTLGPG
Excerpt: Photoactivatable neuropeptides are powerful tools that can drive studies into the mechanisms of endogenous receptor signaling in acute brain slices.[3],[8],[40] To determine if NPP-caged peptides are compatible with such experiments, we established electrophysiological assays for measuring the activation of GRPR, OTR, NK1R, and CCK2R in acute brain slices taken from transgenic mice. These assays involved whole cell recordings of membrane currents from genetically defined neurons located in different brain regions where endogenous receptor activation produces inward, excitatory currents that facilitate action potential firing. Neuropeptide receptor-expressing cells were identified for fluorescence-guided, targeted electrophysiological recordings using transgenic mice that contain transgenes encoding Cre-recombinase under a promotor that is specific to the cell of interest, as well as a Cre-dependent tdTomato fluorescent protein via the Ai14 (Rosa26-lsl-tdTomato) reporter strain. […]
(A) Average inward currents over time after bath application of GRP(14-27)-NPP (3 μM, n = 5 cells from 4 mice) or GRP(14-27) (300 nM, n = 5 from 4 mice), recorded from fluorescently labeled VIP interneurons in layer 1 of the motor cortex. Data are expressed as the mean ± SEM. […] Data are expressed as the mean ± SEM. […] Data are expressed as the mean ± SEM. […] Data are expressed as the mean ± SEM. […]

[3] = tested on: locus coeruleus; details: bath applied; cited from earlier work
Excerpt: Although extracellular peptidases are known to limit peptide concentrations in the nervous system, how they shape the temporal dynamics of neuropeptide signaling in the brain is poorly understood. For example, rapid proteolysis by peptidases localized near peptide receptors might limit the peak concentration of peptide and thus the degree of receptor activation.

[4] = tested on: its receptors (GRP receptors); details: cited from earlier work
Excerpt: This motif is associated with immature neuropeptides that are likely not intended for receptor binding. […] We therefore reasoned that inclusion of the entire C-terminal amidation sequence might be particularly effective at reducing binding affinity if incorporated into C-terminally caged peptides, especially due to the presence of bulky, positively charged amino acids found in the dibasic motif. To mimic the proneuropept ...

## COc1ccc([N+](=O)[O-])c2c1CCN2C(=O)CC[C@H](N)C(=O)O [MNI-glutamate, 4-Methoxy-7-nitroindolinyl-caged-L-glutamate]
[1]
  quantum yield: 0.065

## Cc1cccc(NC(=O)N[C@@H]2N=C(c3ccccc3)c3ccccc3N(CC(=O)c3ccccc3C)C2=O)c1 [YM022, (R)-N-[2,3-Dihydro-1-[2-(2-methylphenyl)-2-oxoethyl]-2-oxo-5-phenyl-1H-1,4-benzodiazepin-3-yl]-N'-(3-methylphenyl)-urea]
[2]
  block of light-evoked CCK(8S)-NPP current: strongly attenuated

## enkephalin
[3]
  increase of potency by peptidase inhibition: 10 fold

B1: progastrin-releasing peptide: prohormone of gastrin-releasing peptide, literature finding (protein, UniProt P07492 24-148, looked up)
pro-form: VPLPAGGGTVLTKMYPRGNHWAVGHLMGKKSTGESSSVSERGSLKQQLREYIRWEEAARNLLGLIEAKENRNHQPPQPKALGNQQPSWDSEDSSNFKDVGSKGKVGRLSAPGSQREGRNPQLNQQ
modifications: pro-form
notes: prohormone of gastrin-releasing peptide, literature finding
[4]
  receptor binding: does not bind
